Experimental data published in patent publication US5405866A, “Multidrug resistance modifying dithianes” (Hoffmann-La Roche Inc., priority 1991, dated 1995).
Where two headings read alike, the source gives them in different places.

Columns and labels:
[1] = system: multiple resistance to cytostatics (multidrug resistance); assay: elimination of multiple resistance to cytostatics (literature and background statements); details: compared with compounds of formula I
[2] = system: multiple resistance to cytostatics (multidrug resistance); details: literature; cited from earlier work
[3] = background statement, no test given; cited from earlier work
KB-8-5 cells [4] = assay: resistance modification index (RMI) test with vincristine in multidrug-resistant cells (formazan colorimetric measurement); type: cell-based, human; details: RMI at 0.1·IC50 of the substance; RMI = IC50 vincristine without / with test substance; n = 2 (A-E) or 4 (verapamil)
Source text: The modifying activity of multiple resistance to cytostatics of the compounds of formula I, of rac-N-(3,4-dimethoxyphenethyl)-2-(3,4-dimethoxyphenyl)-β,N-dimethyl-m-dithiane-2-propanamine and of usual reference substances was investigated as follows:
(§1) KB-8-5 cells, a human cell line with multiple resistance to cytostatics, and KB-3-1 cells, a correspondingly sensitive cell line [Cell. Mol. Genet. 11, 117-126, (1985) and Science 232, 643-645, (1986)], were cultivated in suitable media [Cancer Res. 94, 267-275, (1984), Exp. Hematol. 12, 559-567, (1984), Eliason, Ramuz & Kaufmann in Int. J. Cancer 46, 113-117, (1990)].
(§2) The testing and the determination of cytotoxicity are based on the ability of living cells to reduce 3-(4,5-dimethylthiazol-2-yl)-2,5-diphenyltetrazolium bromide to the corresponding blue formazan (colorimetric measurement) [J. Immunol. Methods 65, 55-63, (1985)]. The cells were incubated for 2 days in separate containers. The compounds selected for the biological investigation were added to the cell cultures in such a manner that the serial concentrations 10^-8 M, 10^-7 M, 10^-6 M, 10^-5 M and 10^-4 M were achieved. Vincristine in 4 dilution series (3·10^-9 M, 10^-8 M, 3·10^-8 M and 10^-7 M for KB-8-5 cells and 30 times less for the KB-3-1 cells) was added thereto. After incubating for 5 days the cell count was measured at 540 nm using the formazan color reaction. The evaluation was carried out by calculating a resistance modification index, RMI, which is the ratio between the IC50 value of vincristine in the absence of a test substance and the IC50 value of vincristine in the presence of a test substance. [formula]
(RMI0.1 ≡RMI at 0.1·IC50 of the substance).

in vivo = details: po, mouse, preliminary, read-out: Toxicity (LD50)
KB-8-5 cells [5] = assay: cytotoxicity (IC50) of the test substance, MTT/formazan color reaction; type: cell-based; details: Homo sapiens, 120 h
Source text: as §1
as §2, with “The biological test is based on the ability of the test substance to lower the concentration of a standard cytostatic which is required to kill 50% of the cells. The testing” for “The testing”
In order to compare all activities of compounds from different classes, a RMI0.1 is defined: this is the RMI value of a substance which is obtained with the ten-fold lower concentration than the IC50 value. (RMI0.1 ≡RMI at 0.1·IC50 of the substance). […] The preliminary toxicological data (LD50, mouse) after oral administration of the test compound are also given.

Row | Compound | activity in eliminating multiple resistance [2] | Vincristine RMI0.1 (KB-8-5 cells [4]) | LD50 (in vivo) | IC50 (KB-8-5 cells [5]; read-out: IC50) | other results
1 | COc1ccc(CCN(C)CCCC2(c3ccc4ccccc4c3)SCCCS2)cc1OC (racemic) [rac-N-(3,4-dimethoxyphenethyl)-N-methyl-2-(2-naphthyl)-m-dithiane-2-propanamine] | certain activity in partially or completely eliminating multiple resistance | – | – | – | activity vis-a-vis the novel compounds of formula I [1]: clearly lower activity; toxicity [3]: relatively toxic
2 | COc1ccc(CCN(C)CCCC(C#N)(c2ccc(OC)c(OC)c2)C(C)C)cc1OC (stereo not shown) [verapamil] | certain activity in partially or completely eliminating multiple resistance | – | – | – | –
3 | COc1ccc(C2(CN(C)CC(C)CC3(c4ccc(OC)c(OC)c4)SCCCS3)CCC2)cc1OC.Cl (racemic) [D, rac-2-(3,4-dimethoxyphenyl)-N-[[1-(3,4-dimethoxyphenyl)cyclobutyl]methyl]-β,N-dimethyl-m-dithiane-2-propanamine hydrochloride] | – | 163 | 1000 to 2000 mg/kg | 21 µM | –
4 | COc1ccc(CCN(C)CCC[C@@](C#N)(c2ccc(OC)c(OC)c2)C(C)C)cc1OC [(-)Verapamil, reference compound] | – | 47 | – | – | IC50 (KB-8-5 cells [5]): 72 µM
5 | CN1CCN(CCCN2c3ccccc3Sc3ccc(C(F)(F)F)cc32)CC1 [trifluoperazine] | certain activity in partially or completely eliminating multiple resistance | – | – | – | –
6 | COc1ccc(CCN(C)CC(C)CC2(c3ccc(C)cc3)SCCCS2)cc1OC.Cl (racemic) [B, rac-N-(3,4-dimethoxyphenethyl)-β,N-dimethyl-2-(4-tolyl)-m-dithiane-2-propanamine hydrochloride] | – | 159 | 625 to 1250 mg/kg | 14 µM | –
7 | COc1ccc(CCN(C)CC(C)CC2(c3ccc(Cl)cc3)SCCCS2)cc1OC.Cl (racemic) [A, rac-2-(4-Chlorophenyl)-N-(3,4-dimethoxyphenethyl)-β,N-dimethyl-m-dithiane-2-propanamine hydrochloride] | – | 216 | 1250 to 2500 mg/kg | 14 µM | –
8 | COc1ccc(CCN(C)CCC[C@](C#N)(c2ccc(OC)c(OC)c2)C(C)C)cc1OC [(+)Verapamil, reference compound] | – | 12 | – | – | IC50 (KB-8-5 cells [5]): 62 µM
9 | COc1ccc(C2(CN(C)CC(C)CC3(c4cc(OC)c(OC)c(OC)c4)SCCCS3)CCC2)cc1OC.Cl (racemic) [C, rac-N-[[1-(3,4-dimethoxyphenyl)cyclobutyl]methyl]-β,N-dimethyl-2-(3,4,5-trimethoxyphenyl)-m-dithiane-2-propanamine hydrochloride] | – | 224 | 1000 to 2000 mg/kg | 21 µM | –
10 | C=C[C@H]1C[N@@]2CC[C@H]1C[C@@H]2[C@@H](O)c1ccnc2ccc(OC)cc12 [quinidine] | certain activity in partially or completely eliminating multiple resistance | – | – | – | –
11 | COc1ccc(C2(CC(C)CN(C)CCc3ccc(Cl)cc3)SCCCS2)cc1OC.Cl (racemic) [E, rac-N-(4-chlorophenethyl)-2-(3,4-dimethoxyphenyl)-β,N-dimethyl-m-dithiane-2-propanamine hydrochloride] | – | 24 | 2500 to 5000 mg/kg | 7.7 µM | –
